Data published in paper PMC4669708 (Cell Death & Disease, 2015).

Columns and labels:
Experiment in all cases: c-ponatinib pulldown LC-MS/MS
Type in all cases: binding
MINK1 = MINK1 (Homo sapiens, UniProt Q8N4C8)
Summary of the method: (§1)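 c-Ponatinib (25 nmol) immobilized on NHS-Sepharose was incubated with 10 mg whole cell lysate per replicate, in duplicate. Eluates were reduced, alkylated, trypsin-digested and analysed by gel-free 1D LC-MS/MS. Specificity was scored from Mascot, Phenyx and spectral counts, with competition by free compound.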

CDK16 = CDK16 (Homo sapiens, UniProt Q00536)
Summary of the method: as §1

JAK2 = JAK2 (Homo sapiens, UniProt O60674)
Summary of the method: as §1

MAP3K7 = biological target: T1, MAP3K7 (Homo sapiens, UniProt O43318)
T1 sequence (O43318 1-606): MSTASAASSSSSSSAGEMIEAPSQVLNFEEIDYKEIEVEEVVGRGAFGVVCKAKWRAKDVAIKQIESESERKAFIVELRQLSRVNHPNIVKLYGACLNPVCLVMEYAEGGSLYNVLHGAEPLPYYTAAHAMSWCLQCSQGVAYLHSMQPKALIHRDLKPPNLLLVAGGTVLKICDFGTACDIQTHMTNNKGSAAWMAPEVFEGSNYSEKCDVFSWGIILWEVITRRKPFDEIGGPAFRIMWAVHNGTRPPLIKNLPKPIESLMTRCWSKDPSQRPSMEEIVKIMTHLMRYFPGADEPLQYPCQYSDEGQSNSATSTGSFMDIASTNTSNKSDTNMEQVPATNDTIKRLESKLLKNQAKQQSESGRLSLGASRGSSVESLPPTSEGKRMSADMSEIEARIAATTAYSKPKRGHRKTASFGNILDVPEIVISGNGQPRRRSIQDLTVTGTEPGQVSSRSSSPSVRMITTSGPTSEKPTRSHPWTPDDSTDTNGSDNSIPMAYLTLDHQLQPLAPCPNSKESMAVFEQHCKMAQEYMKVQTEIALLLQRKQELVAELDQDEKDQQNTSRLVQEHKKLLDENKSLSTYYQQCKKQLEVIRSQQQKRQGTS
Summary of the method: as §1

TESK2 = TESK2 (Homo sapiens, UniProt Q96S53)
Summary of the method: as §1

MINK1, sequence (Q8N4C8 whole entry): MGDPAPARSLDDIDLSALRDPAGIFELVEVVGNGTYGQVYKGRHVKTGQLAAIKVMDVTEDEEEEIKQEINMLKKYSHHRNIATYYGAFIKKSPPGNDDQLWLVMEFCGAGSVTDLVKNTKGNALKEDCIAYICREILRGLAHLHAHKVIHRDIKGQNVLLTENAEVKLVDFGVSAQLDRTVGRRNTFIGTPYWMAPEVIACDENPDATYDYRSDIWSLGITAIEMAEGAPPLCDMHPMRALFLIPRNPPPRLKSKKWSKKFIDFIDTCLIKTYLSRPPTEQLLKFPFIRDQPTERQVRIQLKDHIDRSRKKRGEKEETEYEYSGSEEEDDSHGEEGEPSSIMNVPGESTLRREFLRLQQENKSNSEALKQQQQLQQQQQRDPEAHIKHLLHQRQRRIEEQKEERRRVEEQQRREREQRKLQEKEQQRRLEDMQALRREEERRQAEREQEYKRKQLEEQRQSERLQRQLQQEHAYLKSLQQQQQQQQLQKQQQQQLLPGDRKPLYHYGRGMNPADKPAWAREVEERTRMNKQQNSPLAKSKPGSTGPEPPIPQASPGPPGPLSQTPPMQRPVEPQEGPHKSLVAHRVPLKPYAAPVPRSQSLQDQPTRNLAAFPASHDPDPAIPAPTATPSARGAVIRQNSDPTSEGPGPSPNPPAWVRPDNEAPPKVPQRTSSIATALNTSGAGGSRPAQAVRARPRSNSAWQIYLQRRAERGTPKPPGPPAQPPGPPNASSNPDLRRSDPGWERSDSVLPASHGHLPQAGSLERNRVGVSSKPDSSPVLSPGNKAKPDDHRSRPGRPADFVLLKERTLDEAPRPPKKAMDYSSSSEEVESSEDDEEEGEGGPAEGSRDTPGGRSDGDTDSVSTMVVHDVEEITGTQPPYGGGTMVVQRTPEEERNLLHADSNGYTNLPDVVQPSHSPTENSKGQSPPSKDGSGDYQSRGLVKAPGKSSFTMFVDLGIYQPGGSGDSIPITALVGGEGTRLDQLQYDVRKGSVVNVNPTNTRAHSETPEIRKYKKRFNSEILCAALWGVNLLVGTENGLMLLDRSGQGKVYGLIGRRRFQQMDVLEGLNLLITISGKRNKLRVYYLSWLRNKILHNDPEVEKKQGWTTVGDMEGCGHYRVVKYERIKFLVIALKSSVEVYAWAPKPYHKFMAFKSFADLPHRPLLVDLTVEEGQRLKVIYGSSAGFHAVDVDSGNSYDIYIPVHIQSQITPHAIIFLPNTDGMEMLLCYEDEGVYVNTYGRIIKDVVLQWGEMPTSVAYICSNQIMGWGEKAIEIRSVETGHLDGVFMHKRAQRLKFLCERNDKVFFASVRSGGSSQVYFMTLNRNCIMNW
CDK16, sequence (Q00536 whole entry): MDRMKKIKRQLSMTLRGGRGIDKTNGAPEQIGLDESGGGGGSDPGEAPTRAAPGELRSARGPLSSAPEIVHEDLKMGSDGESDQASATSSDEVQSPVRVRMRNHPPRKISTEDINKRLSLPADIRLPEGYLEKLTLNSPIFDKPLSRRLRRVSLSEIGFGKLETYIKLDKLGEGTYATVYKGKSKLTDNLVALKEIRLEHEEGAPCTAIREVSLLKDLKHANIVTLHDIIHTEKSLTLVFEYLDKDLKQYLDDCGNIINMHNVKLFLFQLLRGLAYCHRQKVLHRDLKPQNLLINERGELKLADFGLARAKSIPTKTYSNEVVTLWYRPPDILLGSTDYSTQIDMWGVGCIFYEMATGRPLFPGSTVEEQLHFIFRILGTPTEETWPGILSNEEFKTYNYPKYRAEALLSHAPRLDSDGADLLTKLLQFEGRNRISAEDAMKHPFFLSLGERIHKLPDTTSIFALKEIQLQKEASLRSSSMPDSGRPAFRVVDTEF
TESK2, sequence (Q96S53 whole entry): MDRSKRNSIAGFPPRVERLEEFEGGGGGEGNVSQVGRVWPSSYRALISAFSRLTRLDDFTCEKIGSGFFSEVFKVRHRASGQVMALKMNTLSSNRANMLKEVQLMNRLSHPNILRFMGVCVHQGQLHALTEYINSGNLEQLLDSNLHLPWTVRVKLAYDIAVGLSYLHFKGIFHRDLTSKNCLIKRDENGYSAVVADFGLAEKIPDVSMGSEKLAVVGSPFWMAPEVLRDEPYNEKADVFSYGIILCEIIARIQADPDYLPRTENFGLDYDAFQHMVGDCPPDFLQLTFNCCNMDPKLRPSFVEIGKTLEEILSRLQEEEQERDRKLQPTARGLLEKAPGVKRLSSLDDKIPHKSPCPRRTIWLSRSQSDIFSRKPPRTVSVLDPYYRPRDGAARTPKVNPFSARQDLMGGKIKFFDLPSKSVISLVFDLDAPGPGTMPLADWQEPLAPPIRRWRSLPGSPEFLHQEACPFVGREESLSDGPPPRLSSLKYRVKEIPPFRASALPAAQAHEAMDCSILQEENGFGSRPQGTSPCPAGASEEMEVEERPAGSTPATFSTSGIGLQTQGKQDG
JAK2, sequence (O60674 whole entry): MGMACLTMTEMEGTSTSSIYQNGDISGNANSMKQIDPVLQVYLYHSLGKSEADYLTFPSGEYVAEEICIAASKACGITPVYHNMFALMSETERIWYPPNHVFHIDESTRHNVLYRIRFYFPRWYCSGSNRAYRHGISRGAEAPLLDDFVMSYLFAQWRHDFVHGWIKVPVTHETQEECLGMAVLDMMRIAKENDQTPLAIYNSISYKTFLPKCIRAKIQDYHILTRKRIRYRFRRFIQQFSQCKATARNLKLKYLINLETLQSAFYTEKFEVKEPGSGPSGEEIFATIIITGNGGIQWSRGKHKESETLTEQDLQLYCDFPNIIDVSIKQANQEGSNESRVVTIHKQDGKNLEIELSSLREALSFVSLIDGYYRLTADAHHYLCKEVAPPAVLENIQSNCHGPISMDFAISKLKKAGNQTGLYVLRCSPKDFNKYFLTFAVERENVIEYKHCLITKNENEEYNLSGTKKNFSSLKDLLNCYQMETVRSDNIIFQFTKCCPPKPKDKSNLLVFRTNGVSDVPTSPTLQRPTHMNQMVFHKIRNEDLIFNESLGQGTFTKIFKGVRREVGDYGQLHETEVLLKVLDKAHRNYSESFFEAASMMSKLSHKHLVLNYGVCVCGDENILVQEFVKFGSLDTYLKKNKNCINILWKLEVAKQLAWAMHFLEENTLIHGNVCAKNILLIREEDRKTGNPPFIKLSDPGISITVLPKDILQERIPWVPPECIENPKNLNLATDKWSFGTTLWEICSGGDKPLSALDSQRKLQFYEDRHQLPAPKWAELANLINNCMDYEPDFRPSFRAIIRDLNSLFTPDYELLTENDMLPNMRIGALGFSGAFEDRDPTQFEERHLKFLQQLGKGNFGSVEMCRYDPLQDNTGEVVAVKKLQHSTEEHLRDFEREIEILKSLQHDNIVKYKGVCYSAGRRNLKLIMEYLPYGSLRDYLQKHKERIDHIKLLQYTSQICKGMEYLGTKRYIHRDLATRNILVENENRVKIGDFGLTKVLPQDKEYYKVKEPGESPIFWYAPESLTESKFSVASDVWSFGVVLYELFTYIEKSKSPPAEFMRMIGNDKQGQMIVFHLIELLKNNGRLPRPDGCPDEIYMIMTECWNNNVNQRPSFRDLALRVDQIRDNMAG

## Cc1ccc(C(=O)Nc2ccc(CN3CCN(CCCN)CC3)c(C(F)(F)F)c2)cc1C#Cc1cnc2cccnn12 [c-ponatinib]
MINK1; + free ponatinib
  Av. SC comp.: 0
  Total SC comp.: 0
MINK1; no competitor
  Av. SC: 4
  Total SC: 16
CDK16; + free ponatinib
  Av. SC comp.: 1.25
  Total SC comp.: 5
CDK16; no competitor
  Av. SC: 10.75
  Total SC: 43
JAK2; + free ponatinib
  Av. SC comp.: 0
  Total SC comp.: 0
JAK2; no competitor
  Av. SC: 2.25
  Total SC: 9
MAP3K7; + free ponatinib
  Av. SC comp.: 2.25
  Total SC comp.: 9
MAP3K7; no competitor
  Av. SC: 19.5
  Total SC: 78
TESK2; + free ponatinib
  Av. SC comp.: 0
  Total SC comp.: 0
TESK2; no competitor
  Av. SC: 5
  Total SC: 20
